Results from ChEMBL document CHEMBL3991601, “The target landscape of clinical kinase drugs” (Science, 2017).
Activity calls are given as the source filed them. For most assays here, no stated cut-off is given here; in the data, actives have a measured Kd and inactives only a lower limit.

Tests used:
[1] = molecular target: Protein-tyrosine kinase 2-beta (Homo sapiens, UniProt Q14289)
[2] = molecular target: Focal adhesion kinase 1 (Homo sapiens, UniProt Q05397)
[3] = molecular target: T1, Ribosyldihydronicotinamide dehydrogenase [quinone] (Homo sapiens, UniProt P16083)
T1 sequence (P16083 whole entry): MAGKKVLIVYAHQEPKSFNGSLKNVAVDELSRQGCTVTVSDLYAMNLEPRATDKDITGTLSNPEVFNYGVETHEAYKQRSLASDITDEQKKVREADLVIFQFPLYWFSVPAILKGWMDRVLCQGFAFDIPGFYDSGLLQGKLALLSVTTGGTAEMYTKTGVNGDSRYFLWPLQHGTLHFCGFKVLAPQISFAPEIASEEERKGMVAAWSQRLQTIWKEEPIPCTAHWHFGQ

[4] = molecular target: T2, Very long-chain specific acyl-CoA dehydrogenase, mitochondrial (Homo sapiens, UniProt P49748)
T2 sequence (P49748 whole entry): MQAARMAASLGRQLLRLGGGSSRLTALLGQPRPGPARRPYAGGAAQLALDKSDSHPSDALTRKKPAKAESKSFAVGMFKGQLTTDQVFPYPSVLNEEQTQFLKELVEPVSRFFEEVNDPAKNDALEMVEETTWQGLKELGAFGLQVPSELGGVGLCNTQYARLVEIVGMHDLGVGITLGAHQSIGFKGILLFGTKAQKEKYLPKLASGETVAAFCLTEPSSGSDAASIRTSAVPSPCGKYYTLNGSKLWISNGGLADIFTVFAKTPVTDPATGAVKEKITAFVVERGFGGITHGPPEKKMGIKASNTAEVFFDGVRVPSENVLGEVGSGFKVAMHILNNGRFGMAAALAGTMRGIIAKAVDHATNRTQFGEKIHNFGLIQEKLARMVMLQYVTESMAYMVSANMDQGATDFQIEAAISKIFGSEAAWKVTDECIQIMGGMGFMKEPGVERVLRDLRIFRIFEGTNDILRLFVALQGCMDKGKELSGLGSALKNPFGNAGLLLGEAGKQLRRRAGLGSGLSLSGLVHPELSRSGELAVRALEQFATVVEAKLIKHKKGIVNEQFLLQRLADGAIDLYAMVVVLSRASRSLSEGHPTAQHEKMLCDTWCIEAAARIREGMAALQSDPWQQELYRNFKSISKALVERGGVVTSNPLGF

[5] = molecular target: Proto-oncogene tyrosine-protein kinase receptor Ret (Homo sapiens, UniProt P07949)
[6] = molecular target: T3, Non-receptor tyrosine-protein kinase TNK1 (Homo sapiens, UniProt Q13470)
T3 sequence (Q13470 whole entry): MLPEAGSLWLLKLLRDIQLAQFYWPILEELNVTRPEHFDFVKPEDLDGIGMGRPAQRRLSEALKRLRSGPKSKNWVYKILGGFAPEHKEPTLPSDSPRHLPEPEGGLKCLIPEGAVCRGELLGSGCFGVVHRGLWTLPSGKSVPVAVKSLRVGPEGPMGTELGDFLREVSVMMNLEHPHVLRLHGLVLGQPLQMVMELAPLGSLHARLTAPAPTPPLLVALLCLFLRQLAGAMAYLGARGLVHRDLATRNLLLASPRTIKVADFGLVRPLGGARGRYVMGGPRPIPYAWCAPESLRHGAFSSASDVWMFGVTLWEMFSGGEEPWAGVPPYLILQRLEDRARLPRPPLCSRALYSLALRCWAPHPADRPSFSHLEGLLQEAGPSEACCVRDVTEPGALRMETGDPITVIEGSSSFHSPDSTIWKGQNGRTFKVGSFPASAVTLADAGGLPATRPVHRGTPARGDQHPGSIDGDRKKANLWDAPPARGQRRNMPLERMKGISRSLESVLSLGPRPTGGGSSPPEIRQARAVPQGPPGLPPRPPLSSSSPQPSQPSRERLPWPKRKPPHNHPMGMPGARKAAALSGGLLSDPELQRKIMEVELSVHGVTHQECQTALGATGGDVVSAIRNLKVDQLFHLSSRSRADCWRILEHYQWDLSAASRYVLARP

[7] = molecular target: Cyclin-dependent kinase 12 (Homo sapiens, UniProt Q9NYV4)
[8] = molecular target: Tyrosine-protein kinase Fer (Homo sapiens, UniProt P16591)
[9] = molecular target: T4, Acyl-CoA dehydrogenase family member 10 (Homo sapiens, UniProt Q6JQN1)
T4 sequence (Q6JQN1 whole entry): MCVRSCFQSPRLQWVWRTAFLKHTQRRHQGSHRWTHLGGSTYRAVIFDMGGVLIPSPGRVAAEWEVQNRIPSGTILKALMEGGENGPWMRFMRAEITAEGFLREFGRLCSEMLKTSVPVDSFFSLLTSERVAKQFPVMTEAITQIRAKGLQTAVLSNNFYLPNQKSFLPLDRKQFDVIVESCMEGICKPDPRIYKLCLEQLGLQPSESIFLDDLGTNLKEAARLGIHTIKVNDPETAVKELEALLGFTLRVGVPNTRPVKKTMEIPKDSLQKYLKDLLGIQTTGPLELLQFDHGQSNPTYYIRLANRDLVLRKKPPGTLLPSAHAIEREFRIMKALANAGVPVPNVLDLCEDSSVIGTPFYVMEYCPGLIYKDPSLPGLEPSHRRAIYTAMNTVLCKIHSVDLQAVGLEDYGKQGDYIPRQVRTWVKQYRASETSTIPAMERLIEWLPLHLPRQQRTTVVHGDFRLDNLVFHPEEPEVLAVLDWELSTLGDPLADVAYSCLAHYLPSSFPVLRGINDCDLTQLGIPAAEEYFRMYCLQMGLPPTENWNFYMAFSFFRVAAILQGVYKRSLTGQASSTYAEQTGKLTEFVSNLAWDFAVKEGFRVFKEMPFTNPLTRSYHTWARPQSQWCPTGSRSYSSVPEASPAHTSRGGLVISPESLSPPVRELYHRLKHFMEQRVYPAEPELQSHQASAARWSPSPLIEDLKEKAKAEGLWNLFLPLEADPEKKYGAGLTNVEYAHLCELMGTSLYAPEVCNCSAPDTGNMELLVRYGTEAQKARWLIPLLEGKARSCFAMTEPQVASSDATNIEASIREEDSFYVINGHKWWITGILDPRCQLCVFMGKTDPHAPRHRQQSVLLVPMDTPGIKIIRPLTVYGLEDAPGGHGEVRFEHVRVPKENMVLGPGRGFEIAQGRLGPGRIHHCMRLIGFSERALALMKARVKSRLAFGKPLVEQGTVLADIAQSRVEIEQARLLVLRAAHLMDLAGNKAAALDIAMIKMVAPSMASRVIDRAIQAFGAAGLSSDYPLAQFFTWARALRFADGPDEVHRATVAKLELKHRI

[10] = molecular target: Tyrosine-protein kinase JAK1 (Homo sapiens, UniProt P23458)
Sequence of Tyrosine-protein kinase JAK1 (P23458 whole entry): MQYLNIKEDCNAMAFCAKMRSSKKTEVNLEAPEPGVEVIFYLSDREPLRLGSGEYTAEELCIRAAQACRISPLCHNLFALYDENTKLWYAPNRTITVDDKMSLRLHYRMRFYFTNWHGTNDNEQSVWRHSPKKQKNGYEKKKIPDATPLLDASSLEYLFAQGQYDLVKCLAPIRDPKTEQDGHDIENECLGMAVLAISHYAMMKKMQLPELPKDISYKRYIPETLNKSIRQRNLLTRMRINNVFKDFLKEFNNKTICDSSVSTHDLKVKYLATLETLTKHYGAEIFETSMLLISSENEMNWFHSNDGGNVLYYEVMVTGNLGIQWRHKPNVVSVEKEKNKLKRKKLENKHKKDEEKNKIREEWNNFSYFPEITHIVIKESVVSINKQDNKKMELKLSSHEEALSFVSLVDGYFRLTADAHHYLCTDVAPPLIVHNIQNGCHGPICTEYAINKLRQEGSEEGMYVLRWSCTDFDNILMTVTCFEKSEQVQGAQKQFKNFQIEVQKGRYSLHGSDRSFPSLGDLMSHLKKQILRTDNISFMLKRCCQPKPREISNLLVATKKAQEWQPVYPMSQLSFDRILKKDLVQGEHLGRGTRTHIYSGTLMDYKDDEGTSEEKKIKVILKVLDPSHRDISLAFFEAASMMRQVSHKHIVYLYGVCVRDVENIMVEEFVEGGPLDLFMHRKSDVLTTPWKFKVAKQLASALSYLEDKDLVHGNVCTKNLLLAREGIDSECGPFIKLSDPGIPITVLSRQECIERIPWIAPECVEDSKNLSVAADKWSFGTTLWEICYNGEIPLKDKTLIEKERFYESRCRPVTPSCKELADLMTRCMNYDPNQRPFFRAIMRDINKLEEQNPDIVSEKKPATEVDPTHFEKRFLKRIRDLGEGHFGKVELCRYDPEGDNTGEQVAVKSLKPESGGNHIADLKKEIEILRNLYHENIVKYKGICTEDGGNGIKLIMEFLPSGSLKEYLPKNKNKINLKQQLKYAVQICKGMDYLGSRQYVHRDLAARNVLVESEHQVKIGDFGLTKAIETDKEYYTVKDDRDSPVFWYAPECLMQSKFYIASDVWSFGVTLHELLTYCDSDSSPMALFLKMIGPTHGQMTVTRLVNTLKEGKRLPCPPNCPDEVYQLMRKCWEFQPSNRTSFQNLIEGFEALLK

Sequence of Cyclin-dependent kinase 12 (Q9NYV4 whole entry): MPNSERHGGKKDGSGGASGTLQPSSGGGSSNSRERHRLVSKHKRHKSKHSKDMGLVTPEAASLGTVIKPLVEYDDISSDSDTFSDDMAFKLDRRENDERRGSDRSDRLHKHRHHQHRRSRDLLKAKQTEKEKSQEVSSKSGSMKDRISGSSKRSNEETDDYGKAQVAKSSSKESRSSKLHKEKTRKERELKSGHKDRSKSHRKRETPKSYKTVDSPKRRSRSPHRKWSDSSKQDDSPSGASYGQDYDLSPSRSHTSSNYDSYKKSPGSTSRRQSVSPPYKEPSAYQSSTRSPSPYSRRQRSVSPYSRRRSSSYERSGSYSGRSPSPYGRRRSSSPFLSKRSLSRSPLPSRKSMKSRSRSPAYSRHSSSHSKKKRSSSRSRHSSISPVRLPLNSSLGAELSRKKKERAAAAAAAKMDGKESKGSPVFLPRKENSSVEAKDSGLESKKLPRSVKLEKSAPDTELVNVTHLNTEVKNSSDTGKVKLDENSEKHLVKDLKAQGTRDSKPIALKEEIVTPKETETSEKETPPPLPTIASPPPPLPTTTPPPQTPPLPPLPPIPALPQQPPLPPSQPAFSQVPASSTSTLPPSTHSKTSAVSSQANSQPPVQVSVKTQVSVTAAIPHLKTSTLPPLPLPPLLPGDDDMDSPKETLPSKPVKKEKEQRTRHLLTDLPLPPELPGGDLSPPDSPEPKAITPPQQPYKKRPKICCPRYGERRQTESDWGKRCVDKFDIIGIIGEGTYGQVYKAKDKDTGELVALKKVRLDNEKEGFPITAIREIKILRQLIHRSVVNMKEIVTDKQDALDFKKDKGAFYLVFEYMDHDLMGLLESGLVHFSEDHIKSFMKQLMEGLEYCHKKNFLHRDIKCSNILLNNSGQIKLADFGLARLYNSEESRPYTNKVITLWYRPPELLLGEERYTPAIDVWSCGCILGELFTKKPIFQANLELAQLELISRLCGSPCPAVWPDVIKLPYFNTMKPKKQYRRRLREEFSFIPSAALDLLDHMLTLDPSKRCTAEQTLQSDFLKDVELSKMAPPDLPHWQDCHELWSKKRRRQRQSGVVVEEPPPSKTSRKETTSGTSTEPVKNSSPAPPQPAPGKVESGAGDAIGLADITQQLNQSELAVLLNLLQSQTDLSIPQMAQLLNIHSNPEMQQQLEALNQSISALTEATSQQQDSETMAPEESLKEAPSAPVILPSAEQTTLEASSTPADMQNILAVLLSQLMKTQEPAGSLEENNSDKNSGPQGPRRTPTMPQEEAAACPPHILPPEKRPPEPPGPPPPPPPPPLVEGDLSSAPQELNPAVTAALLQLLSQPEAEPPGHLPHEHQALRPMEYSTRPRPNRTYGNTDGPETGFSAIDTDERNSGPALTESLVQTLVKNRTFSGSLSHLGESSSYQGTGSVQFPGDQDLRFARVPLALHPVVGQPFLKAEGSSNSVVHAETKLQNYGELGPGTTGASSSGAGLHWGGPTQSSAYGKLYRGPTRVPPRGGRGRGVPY
Sequence of Focal adhesion kinase 1 (Q05397 whole entry): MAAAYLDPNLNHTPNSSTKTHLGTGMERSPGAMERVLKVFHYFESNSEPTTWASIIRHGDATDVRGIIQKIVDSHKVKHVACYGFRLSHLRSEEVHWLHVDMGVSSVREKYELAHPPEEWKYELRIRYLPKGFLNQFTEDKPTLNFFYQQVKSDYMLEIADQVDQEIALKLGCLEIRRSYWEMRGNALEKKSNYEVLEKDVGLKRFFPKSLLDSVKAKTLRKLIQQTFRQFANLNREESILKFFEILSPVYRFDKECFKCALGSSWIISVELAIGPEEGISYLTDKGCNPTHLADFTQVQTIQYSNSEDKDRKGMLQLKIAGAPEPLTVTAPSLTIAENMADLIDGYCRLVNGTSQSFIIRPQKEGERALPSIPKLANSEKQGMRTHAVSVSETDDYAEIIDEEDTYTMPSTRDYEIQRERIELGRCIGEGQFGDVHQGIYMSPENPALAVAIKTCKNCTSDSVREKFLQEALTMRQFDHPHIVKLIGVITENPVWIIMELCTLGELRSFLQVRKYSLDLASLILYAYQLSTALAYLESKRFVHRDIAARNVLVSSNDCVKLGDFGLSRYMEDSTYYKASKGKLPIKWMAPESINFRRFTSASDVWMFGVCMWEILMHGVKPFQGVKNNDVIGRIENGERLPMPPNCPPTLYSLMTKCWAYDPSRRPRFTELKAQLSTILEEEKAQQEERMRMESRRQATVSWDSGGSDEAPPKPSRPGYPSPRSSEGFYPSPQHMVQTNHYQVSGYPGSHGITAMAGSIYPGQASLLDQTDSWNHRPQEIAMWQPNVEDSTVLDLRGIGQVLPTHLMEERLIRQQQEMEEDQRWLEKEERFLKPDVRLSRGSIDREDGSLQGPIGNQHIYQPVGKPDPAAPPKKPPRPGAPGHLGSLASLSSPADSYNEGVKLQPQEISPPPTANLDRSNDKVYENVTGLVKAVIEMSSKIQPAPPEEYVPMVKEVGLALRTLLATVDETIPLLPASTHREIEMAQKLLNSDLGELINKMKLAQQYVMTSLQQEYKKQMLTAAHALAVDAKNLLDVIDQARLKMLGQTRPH
Sequence of Proto-oncogene tyrosine-protein kinase receptor Ret (P07949 whole entry): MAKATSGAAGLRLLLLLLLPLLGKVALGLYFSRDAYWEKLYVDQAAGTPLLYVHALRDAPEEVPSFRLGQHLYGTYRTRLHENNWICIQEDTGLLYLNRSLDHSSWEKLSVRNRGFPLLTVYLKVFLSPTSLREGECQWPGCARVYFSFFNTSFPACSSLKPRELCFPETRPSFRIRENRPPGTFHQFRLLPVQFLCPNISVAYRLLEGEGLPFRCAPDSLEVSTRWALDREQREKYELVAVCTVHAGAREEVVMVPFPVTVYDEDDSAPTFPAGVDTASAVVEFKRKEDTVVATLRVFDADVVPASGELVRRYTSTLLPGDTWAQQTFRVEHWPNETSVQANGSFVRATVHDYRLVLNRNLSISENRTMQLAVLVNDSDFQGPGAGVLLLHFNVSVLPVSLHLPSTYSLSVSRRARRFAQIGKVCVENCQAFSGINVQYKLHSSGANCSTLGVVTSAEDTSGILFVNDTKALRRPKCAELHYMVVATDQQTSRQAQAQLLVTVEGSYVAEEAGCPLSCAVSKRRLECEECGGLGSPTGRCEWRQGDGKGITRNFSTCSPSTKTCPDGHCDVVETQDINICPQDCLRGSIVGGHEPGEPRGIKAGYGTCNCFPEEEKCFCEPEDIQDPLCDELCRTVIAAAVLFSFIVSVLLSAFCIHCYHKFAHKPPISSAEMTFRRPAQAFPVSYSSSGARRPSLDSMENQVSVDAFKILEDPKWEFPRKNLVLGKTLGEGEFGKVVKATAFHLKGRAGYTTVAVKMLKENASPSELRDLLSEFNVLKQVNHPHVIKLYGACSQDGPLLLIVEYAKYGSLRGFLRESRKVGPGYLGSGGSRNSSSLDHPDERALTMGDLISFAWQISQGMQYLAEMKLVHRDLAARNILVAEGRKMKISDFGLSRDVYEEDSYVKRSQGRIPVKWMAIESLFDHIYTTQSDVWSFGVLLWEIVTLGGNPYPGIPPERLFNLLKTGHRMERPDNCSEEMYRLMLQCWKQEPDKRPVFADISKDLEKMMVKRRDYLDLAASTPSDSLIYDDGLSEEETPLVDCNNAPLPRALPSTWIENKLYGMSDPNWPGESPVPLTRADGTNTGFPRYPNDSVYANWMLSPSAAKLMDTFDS

Row | Structure (SMILES) | Kd [1] | Kd [2] | Kd [3] | Kd [4] | Kd [5] | Kd [6] | Kd [7] | Kd [8] | Kd [9] | Kd [10]
1 | CCNC(=O)C#Cc1ccc2c(c1)NC(=O)/C2=C(\Nc1ccc(CN(C)C)cc1)c1ccccc1 | > 30 µM (inactive) | > 30 µM (inactive) | > 30 µM (inactive) | > 30 µM (inactive) | 0.227 µM (active) | > 30 µM (inactive) | > 30 µM (inactive) | 0.385 µM (active) | > 30 µM (inactive) | > 30 µM (inactive)
2 | C=CC(=O)N1CCC[C@H](n2c(=O)n(-c3ccc(Oc4ccccc4)cc3)c3c(N)ncnc32)C1 | > 30 µM (inactive) | > 30 µM (inactive) | > 30 µM (inactive) | > 30 µM (inactive) | > 30 µM (inactive) | > 30 µM (inactive) | > 30 µM (inactive) | > 30 µM (inactive) | > 30 µM (inactive) | > 30 µM (inactive)
3 | COCc1c(-c2ccc(NC(=O)Nc3cc(C(F)(F)F)ccc3F)c(F)c2)c2c(N)ncnn2c1CN1CCOCC1 | > 30 µM (inactive) | > 30 µM (inactive) | > 30 µM (inactive) | > 30 µM (inactive) | 0.093 µM (active) | 1.26 µM (active) | > 30 µM (inactive) | > 30 µM (inactive) | > 30 µM (inactive) | > 30 µM (inactive)
4 | COc1cc([C@@H]2c3cc4c(cc3[C@H](O)[C@H]3COC(=O)[C@@H]23)OCO4)cc(OC)c1OC [AXL-1717] | > 30 µM (inactive) | > 30 µM (inactive) | > 30 µM (inactive) | > 30 µM (inactive) | > 30 µM (inactive) | > 30 µM (inactive) | > 30 µM (inactive) | > 30 µM (inactive) | – | > 30 µM (inactive)
5 | Cc1cc(C(=O)NOCCO)c(Nc2ccc(I)cc2F)n(C)c1=O [AZD-8330] | > 30 µM (inactive) | > 30 µM (inactive) | > 30 µM (inactive) | > 30 µM (inactive) | > 30 µM (inactive) | > 30 µM (inactive) | > 30 µM (inactive) | > 30 µM (inactive) | – | > 30 µM (inactive)
6 | Cc1nc2cc(-n3ncc(C(=O)c4cc5ccccc5[nH]4)c3N)ccc2[nH]1 [FGFR INHIBITOR DEBIO 1347] | > 30 µM (inactive) | > 30 µM (inactive) | > 30 µM (inactive) | – | 0.783 µM (active) | > 30 µM (inactive) | > 30 µM (inactive) | > 30 µM (inactive) | > 30 µM (inactive) | > 30 µM (inactive)
7 | O=C(Nc1nc2cccc(-c3ccc(CN4CCS(=O)(=O)CC4)cc3)n2n1)C1CC1 [FILGOTINIB] | > 30 µM (inactive) | > 30 µM (inactive) | > 30 µM (inactive) | > 30 µM (inactive) | > 30 µM (inactive) | > 30 µM (inactive) | > 30 µM (inactive) | > 30 µM (inactive) | > 30 µM (inactive) | –
